Data published in patent US20230111996A1, “COMPOUNDS AND CONJUGATES THEREOF” (priority 2020, published 2023).

Legend:
Assay type in all cases: cell-based
HCT116 = test: In-vitro cytotoxicity test of compounds ([…]-GLO), HCT116; conditions: Homo sapiens, HCT-116; HCT116, 72 hours
Experimental: (§1) Killing of human tumor cell lines was evaluated in vitro using the protocol recommended in the […]-GLO® kit (Promega, Madison, Wis.). Briefly, 3×10^3 cells in […] RPMI+10% FBS were added to the inner wells of white-walled 96-well plates (Corning® Costar®, Fisher Scientific, Waltham, Mass.). The following cell lines were tested: A549, HCT116 and SKBR3. The test compounds were diluted to a 5Ax stock (125 μM) in RPMI+10% FBS. Treatments were then serially diluted 1:10 in RPMI+10% FBS. […] of this series was added to the cells in triplicate, resulting in a 9-point dose curve of test compound ranging from […] at the highest concentration to 2.5×10^−7 mM at the lowest. DMSO (vehicle) and media-only controls also were included. Plates were incubated at 37° C., 5% CO2 for 72 hours. At the end of the incubation period, […] of the Substrate Solution (Promega, Madison Wis.) was added to each well. Luminescence was measured using an EnVision Multilabel plate reader (Perkin Elmer, Waltham, Mass.). Data were analyzed and graphed using GraphPad Prism software (GraphPad Software, Inc., La Jolla, Calif.).

A549 = test: In-vitro cytotoxicity test of compounds ([…]-GLO), A549; conditions: Homo sapiens; A549, 72 hours
Experimental: as §1

SKBR3 = test: In-vitro cytotoxicity test of compounds ([…]-GLO), SKBR3; conditions: Homo sapiens, SK-BR-3; SKBR3, 72 hours
Experimental: as §1

Row | Structure (SMILES) | IC50 (HCT116) | IC50 (A549) | IC50 (SKBR3)
1 | CC[C@@]1(O)C(=O)OCc2c1cc1n(c2=O)Cc2c-1nc1cc(F)c(C)c3c1c2[C@@H](N)CC3 [Exatecan] | 0.996 nM | 2.45 nM | 0.181 nM
2 | CC[C@@]1(O)C(=O)OCc2c1cc1n(c2=O)Cc2c-1nc1cc(F)c(N)c3c1c2CCC3 [Compound 1, (S)-4-amino-9-ethyl-5-fluoro-9-hydroxy-1,2,3,9,12,15-hexahydro-10H,13H-benzo[de]pyrano[3′,4′:6,7]indolizino[1,2-b]quinoline-10,13-dione] | 0.164 nM | 0.248 nM | 0.0958 nM
